Measured values as given in patent US6534523B1, “Hepatitis C inhibitor tri-peptides” (Boehringer Ingelheim (Canada) Ltd., priority 1998, dated 2003).

What follows are compounds tested against HCV NS3 protease (UniProt P26663). Conditions: Table 6.
Format: biochemical, HCV genotype 1b
Parameters: rows headed: IC50 (μM); IC50 (μM)
Protocol: Recombinant HCV NS3 Protease/NS4A Cofactor Peptide Radiometric Assay
The enzyme was cloned, expressed and prepared according to the protocol described in Example 36. The enzyme was stored at −80° C., thawed on ice and diluted just prior to use in the assay buffer containing the NS4A cofactor peptide.
The substrate used for the NS3 protease/NS4A cofactor peptide radiometric assay, DDIVPC-SMSYTW, is cleaved between the cysteine and the serine residues by the enzyme. The sequence DDIVPC-SMSYTW corresponds to the NS5A/NS5B natural cleavage site in which the cysteine residue in P2 has been substituted for a proline. […] (molar ratio enzyme:cofactor 1:100) in the absence or presence of inhibitors. The separation of substrate from products is performed by adding avidin-coated agarose beads to the assay mixture followed by filtration. The amount of SMS[^125I-Y]TW product found in the filtrate allows for the calculation of the percentage of substrate conversion and of the percentage of inhibition.
The enzymatic reaction was initiated by the addition of the enzyme/NS4A peptide solution and the assay mixture was incubated for 40 min at 23° C. under gentle agitation. Ten (10) μL of 0.5N NaOH were added and 10 μL 1 M MES, pH 5.8 were added to quench the enzymatic reaction.
A non-linear curve fit with the Hill model was applied to the inhibition-concentration data, and the 50% effective concentration (IC50) was calculated by the use of SAS software (Statistical Software System; SAS Institute, Inc. Cary, N.C.). […]
The NS2-NS5B-3′ non coding region was cloned by RT-PCR into the pCR®3 vector (Invitrogen) using RNA extracted from the serum of an HCV genotype 1b infected individual (provided by Dr. Bernard Willems, Hôpital St-Luc, Montréal, Québec, Canada). The NS3-NS4A DNA region was then subcloned by PCR into the pFastBac™ HTa baculovirus expression vector (Gibco/BRL). The vector sequence includes a region encoding a 28-residue N-terminal sequence which contains a hexahistidine tag. The Bac-to-Bac™ baculovirus expression system (Gibco/BRL) was used to produce the recombinant baculovirus. The full length mature NS3 and NS4A heterodimer protein (His-NS3-NS4AFL) was expressed by infecting 10^6 Sf21 cells/mL with the recombinant baculovirus at a multiplicity of infection of 0.1-0.2 at 27° C. The infected culture was harvested 48 to 64 h later by centrifugation at 4° C. The cell pellet was homogenized in 50 mM NaPO4, pH 7.5, 40% glycerol (w/v), 2 mM β-mercaptoethanol, in presence of a cocktail of protease inhibitors. His-NS3-NS4AFL was then extracted from the cell lysate with 1.5% NP-40, 0.5% Triton X-100, 0.5M NaCl, and a DNase treatment. After ultracentrifugation, the soluble extract was diluted 4-fold and bound on a Pharmacia Hi-Trap Ni-chelating column. […] The His-NS3-NS4AFL was stored at −80° C. in 50 mM sodium phosphate, pH 7.5, 10% (w/v) glycerol, 0.5 M NaCl, 0.25 M imidazole, 0.1% NP-40. It was thawed on ice and diluted just prior to use. The protease activity of His-NS3-NS4AFL was assayed in 50 mM Tris-HCl, pH 8.0, 0.25 M sodium citrate, 0.01% (w/v) n-dodecyl-β-D-maltoside, 1 mM TCEP. Five (5) μM of the internally quenched substrate anthranilyl-DDIVPAbu[C(O)—O]-AMY(3-NO2)TW-OH in presence of various concentrations of inhibitor were incubated with 1.5 nM of His-NS3-NS4AFL for 45 min at 23° C. […] The reaction was terminated with the addition of 1M MES, pH 5.8. Fluorescence of the N-terminal product was monitored on a Perkin-Elmer LS-50B fluorometer equipped with a 96-well plate reader (excitation wavelength: 325 nm; emission wavelength: 423 nm).
The following tables list compounds representative of the invention.

Sequence of HCV NS3 protease (P26663 1027-1206, other chains not shown): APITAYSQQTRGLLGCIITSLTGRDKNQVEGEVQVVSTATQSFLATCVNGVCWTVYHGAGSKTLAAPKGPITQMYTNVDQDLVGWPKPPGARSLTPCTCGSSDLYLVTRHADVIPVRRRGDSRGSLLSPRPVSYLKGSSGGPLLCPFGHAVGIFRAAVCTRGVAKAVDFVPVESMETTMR

Structure (SMILES)	IC50
C=CC1CC1(NC(=O)C1CC(Oc2cc(-c3csc(NC(C)=O)n3)nc3cc(N(C)C)ccc23)CN1C(=O)C(NC(=O)OC(C)(C)C)C(C)(C)C)C(=O)O (stereo not drawn) [compound 628]	11 nM
C=CC1CC1(NC(=O)C1CC(Oc2cc(-c3csc(NC(C)C)n3)nc3cc(N(C)C)ccc23)CN1C(=O)C(NC(=O)OC(C)(C)C)C(C)(C)C)C(=O)O (stereo not drawn) [compound 629]	20 nM
C=CC1CC1(NC(=O)C1CC(Oc2cc(-c3csc(NC(C)=O)n3)nc3cc(N(CC)CC)ccc23)CN1C(=O)C(NC(=O)OC(C)(C)C)C(C)(C)C)C(=O)O (stereo not drawn) [compound 630]	43 nM

Same assay, conditions: Table 7

Structure (SMILES)	IC50
C=CC1CC1(NC(=O)C1CC(Oc2cc(-c3cnn(C)c3)nc3cc(OC)ccc23)CN1C(=O)C(NC(=O)OC(C)(C)C)C(C)(C)C)C(=O)O (stereo not drawn) [compound 701]	28 nM
C=CC1CC1(NC(=O)C1CC(Oc2cc(C=Cc3ccccc3)nc3cc(OC)ccc23)CN1C(=O)C(NC(=O)OC(C)(C)C)C(C)(C)C)C(=O)O (stereo not drawn) [compound 702]	100 nM
C=CC1CC1(NC(=O)C1CC(Oc2cc(OCC)nc3cc(OC)ccc23)CN1C(=O)C(NC(=O)OC(C)(C)C)C(C)(C)C)C(=O)O (stereo not drawn) [compound 703]	47 nM
C=CC1CC1(NC(=O)C1CC(Oc2cc(N3CCc4ccccc43)nc3cc(OC)ccc23)CN1C(=O)C(NC(=O)OC(C)(C)C)C(C)(C)C)C(=O)O (stereo not drawn) [compound 704]	240 nM
C=CC1CC1(NC(=O)C1CC(Oc2cc(N3CCOCC3)nc3cc(OC)ccc23)CN1C(=O)C(NC(=O)OC(C)(C)C)C(C)(C)C)C(=O)O (stereo not drawn) [compound 705]	130 nM
C=CC1CC1(NC(=O)C1CC(Oc2cc(-c3cccs3)nc3cc(OC)ccc23)CN1C(=O)C(NC(=O)OC(C)(C)C)C(C)(C)C)C(=O)O (stereo not drawn) [compound 706]	32 nM
C=CC1CC1(NC(=O)C1CC(Oc2cc(-c3nccs3)nc3cc(OC)ccc23)CN1C(=O)C(NC(=O)OC(C)(C)C)C(C)(C)C)C(=O)O (stereo not drawn) [compound 707]	23 nM
C=CC1CC1(NC(=O)C1CC(Oc2cc(N(C)c3ccccc3)nc3cc(OC)ccc23)CN1C(=O)C(NC(=O)OC(C)(C)C)C(C)(C)C)C(=O)O (stereo not drawn) [compound 708]	150 nM
C=CC1CC1(NC(=O)C1CC(Oc2cc(-c3csc(N)n3)nc3cc(OC)ccc23)CN1C(=O)C(NC(=O)OC(C)(C)C)C(C)(C)C)C(=O)O (stereo not drawn) [compound 709]	21 nM
C=CC1C[C@]1(NC(=O)[C@@H]1C[C@@H](Oc2cc(C(=O)O)nc3cc(OC)ccc23)CN1C(=O)[C@@H](NC(=O)OC(C)(C)C)C(C)(C)C)C(=O)O (stereo partly drawn) [compound 710]	685 nM
C=CC1CC1(NC(=O)C1CC(Oc2cc(-c3csc(C)n3)nc3cc(OC)ccc23)CN1C(=O)C(NC(=O)OC(C)(C)C)C(C)(C)C)C(=O)O (stereo not drawn) [compound 711]	16 nM
C=CC1C[C@]1(NC(=O)[C@@H]1C[C@@H](Oc2cc(N(C)C)nc3cc(OC)ccc23)CN1C(=O)[C@@H](NC(=O)OC(C)(C)C)C(C)(C)C)C(=O)O (stereo partly drawn) [compound 712]	100 nM
C=CC1CC1(NC(=O)C1CC(Oc2cc(-c3cscn3)nc3cc(OC)ccc23)CN1C(=O)C(NC(=O)OC(C)(C)C)C(C)(C)C)C(=O)O (stereo not drawn) [compound 713]	26 nM
C=CC1CC1(NC(=O)C1CC(Oc2cc(-c3csc(CC)n3)nc3cc(OC)ccc23)CN1C(=O)C(NC(=O)OC(C)(C)C)C(C)(C)C)C(=O)O (stereo not drawn) [compound 714]	12 nM
C=CC1CC1(NC(=O)C1CC(Oc2cc(-c3ccccn3)nc3cc(OC)ccc23)CN1C(=O)C(NC(=O)OC(C)(C)C)C(C)(C)C)C(=O)O (stereo not drawn) [compound 715]	31 nM
C=CC1CC1(NC(=O)C1CC(Oc2cc(-c3cccnc3)nc3cc(OC)ccc23)CN1C(=O)C(NC(=O)OC(C)(C)C)C(C)(C)C)C(=O)O (stereo not drawn) [compound 716]	79 nM
C=CC1CC1(NC(=O)C1CC(Oc2cc(-c3csc(NC)n3)nc3cc(OC)ccc23)CN1C(=O)C(NC(=O)OC(C)(C)C)C(C)(C)C)C(=O)O (stereo not drawn) [compound 717]	28 nM
C=CC1C[C@]1(NC(=O)[C@@H]1C[C@@H](Oc2cc(N)nc3cc(OC)ccc23)CN1C(=O)[C@@H](NC(=O)OC(C)(C)C)C(C)(C)C)C(=O)O (stereo partly drawn) [compound 718]	160 nM
